This note sets out measurements from ChEMBL document CHEMBL1201862, “PubChem BioAssay data set” (2004).

SMILES strings stand for the structures.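 Five concentrations, 48 hours, 96-well plates. GI50 = concentration required for 50% inhibition of growth.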 Activity calls are given as the source filed them. Cut-off read from the data, not from the text of the source: active = GI50 up to about 1.1 µM and inactive = higher. Bounds are passed on as bounds.

Some test systems named below: A549; COLO 205; DMS-273; MOLT-4; OVCAR-3; OVCAR-8; RPMI-8226; RXF 393; SF-268; SK-MEL-28; SR; A498; LOX IMVI; M14; CCRF-CEM; Hs-578T; MDA-MB-231; MDA-N; NCI/ADR-RES.
Common to all, as to assay: NCI-60 cell line screen, 48 h

Regarding `CC1(C)CCC(=O)c2c(O)ccc(O)c21`, the GI50 with A549 is > 100 µM (inactive); in the test on COLO 205 it was > 100 µM (inactive); in the test on DMS-273 it was > 100 µM (inactive); with MOLT-4, 41.7 µM (inactive); in the test with OVCAR-3, > 100 µM (inactive); in the test with OVCAR-8 it was 91.8 µM (inactive). For the same compound, the GI50 was 55.3 µM (inactive) in the test on RPMI-8226; 18.4 µM (inactive) in the test on RXF 393; > 100 µM (inactive) with SF-268; 39.8 µM (inactive) in the test with SK-MEL-28; > 10 µM (inactive) with SR.

`Cc1ccc2nc3c(C(=O)NCCN(C)C)cccc3nc2c1`: the GI50 was 2.47 µM (inactive) in the test on A498; 4.61 µM (inactive) with A549; 2.59 µM (inactive) in the test on COLO 205; 2.84 µM (inactive) in the test with DMS-273; 1.82 µM (inactive) in the test on LOX IMVI; 5.12 µM (inactive) in the test with M14. Moreover, the GI50 with MOLT-4 was 1.64 µM (inactive); with OVCAR-3 it was 5.38 µM (inactive); in the test with OVCAR-8 it was 3.48 µM (inactive); in the test on RPMI-8226, 3.6 µM (inactive); in the test on RXF 393, 3.56 µM (inactive); in the test on SK-MEL-28, 4.7 µM (inactive). Also, in the test with SR, the GI50 was 1.01 µM (active).

Take `O=[N+]([O-])c1ccc(S(=O)(=O)Cc2ccccc2)c([N+](=O)[O-])c1`: the GI50 was 15.6 µM (inactive) with A498; 11.4 µM (inactive) in the test on A549; 0.17 µM (active) in the test on CCRF-CEM; 1.79 µM (inactive) in the test on COLO 205; 4.12 µM (inactive) in the test with Hs-578T; 1.79 µM (inactive) in the test with LOX IMVI. The GI50 with M14 is 1.87 µM (inactive); in the test on MDA-MB-231, 2.11 µM (inactive); in the test on MDA-N, 1.96 µM (inactive); in the test on MOLT-4, 0.139 µM (active); in the test on NCI/ADR-RES, 3.21 µM (inactive); with OVCAR-3 it was 1.44 µM (inactive). Besides, the GI50 in the test with OVCAR-8 is 1.89 µM (inactive); with RPMI-8226, 1.4 µM (inactive); in the test with RXF 393 it was 1.75 µM (inactive); with SF-268, 3.16 µM (inactive); in the test with SK-MEL-28, 4.06 µM (inactive); in the test with SR it was 0.247 µM (active).

On to `N#Cc1c(-c2ccc(Cl)cc2)cc(-c2ccc(Nc3ccnc4cc(C(F)(F)F)ccc34)cc2)[nH]c1=O`, for which the GI50 is > 51.8 µM (inactive) in the test with A498; > 100 µM (inactive) in the test with A549; 3.7 µM (inactive) in the test with CCRF-CEM; 21 µM (inactive) in the test with COLO 205; 20 µM (inactive) in the test on Hs-578T; 2.94 µM (inactive) in the test with LOX IMVI. For the same compound, the GI50 in the test with M14 is 4.31 µM (inactive); in the test with MDA-MB-231 it was 19.3 µM (inactive); with MDA-N it was 3.53 µM (inactive); with MOLT-4 it was 4.05 µM (inactive); with NCI/ADR-RES it was > 100 µM (inactive); in the test on OVCAR-3, 8.26 µM (inactive). In addition, the GI50 in the test on OVCAR-8 was 38.3 µM (inactive); in the test on RPMI-8226 it was 21.1 µM (inactive); with RXF 393 it was 8.93 µM (inactive); in the test on SF-268 it was > 66.4 µM (inactive); with SK-MEL-28 it was 8.49 µM (inactive); with SR it was 2.72 µM (inactive).

For `CN(C)CCCNCc1cccc2ccccc12`, the GI50 in the test with A498, in the test with A549, in the test on CCRF-CEM, with COLO 205, in the test with Hs-578T and in the test on LOX IMVI was > 100 µM (inactive) each time. For the same compound, the GI50 in the test on M14 is 66.5 µM (inactive); with MDA-MB-231, > 100 µM (inactive); with MDA-N, > 100 µM (inactive); with MOLT-4, > 100 µM (inactive); in the test with NCI/ADR-RES, > 100 µM (inactive); in the test with OVCAR-3 it was > 100 µM (inactive). Further, the GI50 is > 100 µM (inactive) with OVCAR-8; > 100 µM (inactive) in the test on RPMI-8226; > 100 µM (inactive) in the test on RXF 393; > 100 µM (inactive) with SF-268; > 100 µM (inactive) in the test on SK-MEL-28; 25.6 µM (inactive) in the test on SR.

For the compound `O=[N+]([O-])/C=C\c1c[nH]c2ccc(OCc3ccccc3)cc12`, the GI50 with A498 was 10.5 µM (inactive); in the test on A549 it was 4.31 µM (inactive); in the test on CCRF-CEM, 4.26 µM (inactive); in the test with COLO 205, 3.85 µM (inactive); in the test on Hs-578T it was 3.57 µM (inactive); in the test on LOX IMVI, 1.86 µM (inactive). Further, the GI50 in the test with M14 is 2.18 µM (inactive); in the test with MDA-MB-231, 3.57 µM (inactive); with MDA-N it was 2.23 µM (inactive); in the test on MOLT-4, 3.6 µM (inactive); with NCI/ADR-RES it was 19.3 µM (inactive); in the test with OVCAR-3 it was 10.4 µM (inactive). Further, the GI50 in the test with OVCAR-8 was 4.27 µM (inactive); in the test on RPMI-8226, 2.08 µM (inactive); with RXF 393 it was 2.58 µM (inactive); in the test with SF-268 it was 4.37 µM (inactive); with SK-MEL-28, 3.03 µM (inactive); in the test with SR it was 2.03 µM (inactive).

For the compound `CC(NC(=O)CNP(=O)(c1ccccc1)c1ccccc1)C(=O)NC(Cc1ccccc1)C(=O)OCc1ccccc1` (centres undefined), the GI50 in the test with A498 was > 100 µM (inactive); in the test on A549, > 100 µM (inactive); in the test on CCRF-CEM, > 10 µM (inactive); in the test with COLO 205, > 10 µM (inactive); with Hs-578T, 27.5 µM (inactive); with LOX IMVI, 26.7 µM (inactive). Also, the GI50 in the test on M14 is 49.7 µM (inactive); with MDA-MB-231 it was 35.6 µM (inactive); in the test on MDA-N, 43.3 µM (inactive); with MOLT-4, 20.5 µM (inactive); in the test on NCI/ADR-RES, > 100 µM (inactive); with OVCAR-3, 43 µM (inactive). Besides, the GI50 in the test on OVCAR-8 was > 100 µM (inactive); in the test with RPMI-8226, 33 µM (inactive); in the test with RXF 393, 21 µM (inactive); in the test with SF-268, 21.6 µM (inactive); in the test on SK-MEL-28 it was 23.8 µM (inactive); in the test on SR it was 24.9 µM (inactive).

In the case of `CC(C)N(c1cc2c(cc1F)c(=O)c(C(=O)O)cn2-c1ccc(N2CCN(C)CC2)cn1)C(C)C`, the GI50 with A498, in the test with A549, with CCRF-CEM, in the test with COLO 205, in the test on Hs-578T and with LOX IMVI was > 100 µM (inactive) each time. Also, the GI50 with M14, in the test on MDA-MB-231, in the test with MDA-N, in the test with MOLT-4, in the test on NCI/ADR-RES and in the test on OVCAR-3 was > 100 µM (inactive) in each case. Also, the GI50 with OVCAR-8, in the test on RPMI-8226, with RXF 393, in the test on SF-268, with SK-MEL-28 and with SR was > 100 µM (inactive) each time.

With `C[C@]12CC(c3ccccc3O1)C(C#N)C(=O)N2` (some centres undefined), the GI50 with A498, in the test on A549, in the test with CCRF-CEM, in the test with COLO 205, in the test with Hs-578T and in the test on LOX IMVI was > 100 µM (inactive) throughout. Also, the GI50 in the test on M14, in the test on MDA-MB-231, in the test on MDA-N, in the test with MOLT-4, with NCI/ADR-RES and in the test on OVCAR-3 was > 100 µM (inactive) in each case. The GI50 in the test on OVCAR-8, in the test with RPMI-8226, with RXF 393, in the test with SF-268, in the test on SK-MEL-28 and in the test with SR was > 100 µM (inactive) throughout.

As for `CC(/C=C/C(=O)NO)=C\C(C)C(=O)c1ccc(N(C)C)cc1` (centres undefined), the GI50 is 0.0841 µM (active) in the test with A498; < 0.0122 µM (active) in the test with A549; < 0.01 µM (active) with CCRF-CEM; 0.0209 µM (active) in the test with COLO 205; < 0.01 µM (active) in the test with Hs-578T; < 0.01 µM (active) with LOX IMVI. In addition, the GI50 in the test with M14 was 0.0668 µM (active); with MDA-MB-231, 0.0184 µM (active); in the test with MDA-N it was 0.0287 µM (active); in the test with MOLT-4, < 0.0135 µM (active); with NCI/ADR-RES it was < 0.01 µM (active); in the test on OVCAR-3, 0.0119 µM (active). In addition, the GI50 in the test on OVCAR-8 is < 0.01 µM (active); with RPMI-8226 it was < 0.01 µM (active); in the test with RXF 393, 0.0251 µM (active); with SF-268, 0.0309 µM (active); in the test with SK-MEL-28, 0.479 µM (active); in the test on SR, < 0.0112 µM (active).

`Nc1nc(NCCCO)cc(=O)[nH]1`: the GI50 with A498, with A549, with CCRF-CEM, in the test on COLO 205, in the test with Hs-578T and with LOX IMVI was > 100 µM (inactive) throughout. The GI50 with M14, with MDA-MB-231, with MDA-N, in the test with MOLT-4, with NCI/ADR-RES and in the test with OVCAR-3 was > 100 µM (inactive) in each case. The GI50 in the test with OVCAR-8, in the test on RPMI-8226, with RXF 393, in the test with SF-268, with SK-MEL-28 and in the test with SR was > 100 µM (inactive) each time.

`COc1ccc(\N=C/C=C/C(=C/COC(C)=O)OC(C)=O)cc1`: the GI50 in the test with A498 was 32.3 µM (inactive); in the test with A549, 90.6 µM (inactive); with CCRF-CEM, 4.56 µM (inactive); in the test on COLO 205, 25.4 µM (inactive); in the test on Hs-578T it was 62.8 µM (inactive); with LOX IMVI, 25.6 µM (inactive). In addition, the GI50 in the test on M14 is 32.7 µM (inactive); in the test with MDA-MB-231 it was 19.6 µM (inactive); in the test on MDA-N, 9.38 µM (inactive); in the test on MOLT-4, 68.1 µM (inactive); in the test with NCI/ADR-RES, 39.3 µM (inactive); in the test on OVCAR-3, 20.7 µM (inactive). Also, the GI50 was 14.4 µM (inactive) with OVCAR-8; 5.48 µM (inactive) in the test on RPMI-8226; 21.4 µM (inactive) in the test with RXF 393; 31 µM (inactive) with SF-268; 26.9 µM (inactive) with SK-MEL-28; 39.4 µM (inactive) in the test with SR.
